We go through seven molecules from article PMC7777204, “Locking mixed-lineage kinase domain-like protein in its auto-inhibited state prevents necroptosis” (Proceedings of the National Academy of Sciences of the …, 2020).

The test system of test [1] is Jurkat FADD−/− cells. The experiment in a line: Jurkat FADD−/− necroptosis assay. Particulars: Homo sapiens, 10 ng/mL huTNFα, 24 h, Cell Titer Glo viability, read-out: Jurkat NEC IC50. It counts as cell-based. The method, then: (§1) For the Jurkat FADD^−/− Necroptosis assay, compounds were serially diluted in 100% dimethyl sulfoxide (DMSO) (Sigma-Aldrich catalog no. 41641), and 250 nL was transferred to a sterile 384-well microtiter plate (PerkinElmer catalog no. 6007688) via Echo liquid handler (LABCYTE). Five thousand Jurkat FADD ^−/− cells (ATCC catalog no. CRL-2572) in 20 µL of modified Roswell Park Memorial Institute medium (Gibco catalog no. 10491), 10% fetal calf serum (Gibco catalog no. 100500), 1x Anti/Anti (Gibco catalog no. 15240-062), 1x L-Glutamax (Gibco catalog no. 35050-087), and 1% PenStrep (SIGMA catalog no. P4333) were seeded into each well of the prepared assay plate with compound. Cells and compounds were incubated for 30 min at 37 °C (humidified incubator with 5% CO2). After incubation, 5 µL of recombinant human TNFα (huTNFα) (Biotrend catalog no. cyt-223; 10 ng/mL final concentration [f.c.]) was added to the cells, followed by an incubation of 24 h at 37 °C. Following the incubation, the experimental plates were equilibrated to room temperature (30 min) before 25 µL of Cell Titer Glo Luminescent Cell Viability Assay System reagent (Promega catalog no. G7571) was added to the plate wells, incubated at room temperature for ∼10 min. After incubation, the samples were analyzed for luminescence by using an Envision reader (PerkinElmer).
(§2) Each assay plate contained wells with “high” and “low” controls. High controls (100% CTL) were defined as cells treated with DMSO, and low controls (0% CTL) were defined as cells treated with 10 ng/mL recombinant huTNFα. IC50 values were calculated based on the percentage of control values using a four-parameter-fitting model.
(§3) All cellular assays were done for Cpd 1, Cpd 2, Cpd 3, Cpd 4, and Cpd 5 in duplicate and in quadruplet for NSA.
In general terms: Cellular ATP, detected with luciferase, serves as a proxy for viable cell number.

The test system of test [2] is Jurkat FADD−/− cells. The test can be described thus: Jurkat FADD−/− cytotox assay. In kind it is cell-based. To be noted: Homo sapiens, without huTNFα, Cell Titer Glo viability, read-out: Jurkat TOX IC50. The method, then: as §1
(§4) MLKL antagonists were tested in cytotox assays by using Jurkat FADD^−/− and U937 cells according to the assay procedures described for the necroptosis assays, but without treatment with recombinant huTNFα and/or zVAD-fmk. High controls (100% CTL, no effect) were defined as cells treated with DMSO, and low controls (0% CTL) were defined as medium without cells (0% CTL, maximal effect).
as §3

Test [3] has as its system U937 cells. The test can be described thus: U937 necroptosis assay. In kind it is cell-based. Particulars: Homo sapiens, U-937, huTNFα plus 10 µM zVAD-fmk, read-out: U937 NEC IC50. The method, then: as §1, §2
(§5) MLKL antagonists were also evaluated in a necroptosis assay with U937 cells ([26]) (ATCC catalog no. CRL-1593.2). The assay procedure with U937 cells was as described for the Jurakt FADD^−/− necroptosis assay with the following modifications: 8,000 cells were seeded per well, and, in addition to the recombinant huTNFα, cells were also incubated in the presence of 10 µM (f.c.) carbobenzoxy-valyl-alanyl-aspartyl-[O-methyl]-fluoromethylketone (zVAD-fmk) (Enzo Life Sciences catalog no. ALX-260-020). Low controls (0% CTL) were defined as cells treated with 100 ng/mL recombinant huTNFα plus 10 µM zVAD-fmk.
as §3

For test [4], the system named is U937 cells. The experiment in a line: U937 apoptosis assay. To be noted: Homo sapiens, U-937, 100 ng/mL huTNFα plus 3 µM NSA, read-out: U937 APOP IC50. It counts as cell-based. The method, then: as §5
Furthermore, MLKL antagonists were tested in a U937 apoptosis assay in the presence of 3 µM (f.c.) NSA (Tocris catalog no. 5025) and 100 ng/mL (f.c.) recombinant huTNFα in the same way as described for the U937 necroptosis assay. Low controls (0% CTL) were defined as cells treated with 100 ng/mL recombinant huTNFα plus 3 µM NSA.
as §3

In test [5] the test system is U937 cells. The test can be described thus: U937 cytotox assay. It counts as cell-based. Particulars: Homo sapiens, U-937, without huTNFα and zVAD-fmk, read-out: U937 TOX IC50. The method, then: as §5, §4, §3
For test [6], the target named is T1, human MLKL executioner domain (WT) (Homo sapiens, UniProt Q8NB16).
T1 construct: 80 µM MLKL N-terminal executioner domain (residues 1 to 154) was used; GST (thrombin cleavage site) (cleaved yes)
T1 sequence (Q8NB16 1-154): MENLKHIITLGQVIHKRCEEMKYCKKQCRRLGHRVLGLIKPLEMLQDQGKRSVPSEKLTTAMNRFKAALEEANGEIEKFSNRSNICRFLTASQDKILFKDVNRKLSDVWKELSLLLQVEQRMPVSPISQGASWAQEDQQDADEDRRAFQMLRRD
The test can be described thus: Functional NMR assay (detachment of α-helix 6), WT. In kind it is biochemical. To be noted: for Population of the activated state (pact), α-helix 6 detached: 12 mM NM alone or 500 µM IP6 alone; for Inhibitory effect on MLKL activation (α-helix 6 detachment), in words: 12 mM NM + 500 µM IP6 + 500 µM xanthine compound, compared with Cpd 3 (Fig. 3C). The source says:
To test the significance of the additional interaction between α-helix 6 and the four-helix bundle provided by the xanthine compounds stacking to the phenyl ring of Phe148, we used a described functional NMR assay ([12]). Binding of phytic acid (IP6) and the detergent β-D-nonylmaltoside (NM) led to the detachment of α-helix 6, which can be monitored in ^1H,^15N-correlation spectra by the altered chemical shift of the Hε1–Nε1 correlation of Trp133 and the backbone N–H correlation of Ala141 ([12]). […] Adding 12 mM NM or 500 µM IP6 led to the appearance of a second very weak peak reporting on the detached α-helix 6 with a population of the activated state (pact) of 1% and 4%, respectively (Fig. 3). […] Combining 12 mM NM and 500 µM IP6 induced a dramatic increase of the population of the detached state (pact 86%). […] To further validate the importance of the π–π stacking interaction between the xanthine and Phe148 in α-helix 6, we carried out the functional NMR assay with the F148A-mutated variant of MLKL. The removal of the phenyl group induced significant CSPs localized in close proximity to the mutation site, due to the removal of ring currents and, therefore, strong electronic changes. […] MLKL F148A was more sensitive to the addition of 12 mM NM, 500 µM IP6, or the combination thereof. In the spectra in the presence of NM and the combination of NM and IP6, a third Trp133 peak appeared, most likely reporting on a state similar to the active state. […] Thus, the stacking interaction of the xanthine core to Phe148 is vital for the inhibitory activity of these MLKL inhibitors.
Fig. 3. (A and B) The region of the NMR ^1H,^15N-correlation spectra of the MLKL executioner domain (protein concentration: 80 µM) containing the cross-peaks of Trp133 Nε1–Hε1 in the auto-inhibited state where α-helix 6 is attached to the four-helix bundle (inact. state) and in the active, detached state (act. state) are shown. The unliganded state is depicted in black, with 12 mM NM in cyan; 500 µM IP6 in orange; 500 µM Cpd 3 in blue; 12 mM NM and 500 µM IP6 in red; and 12 mM NM, 500 µM IP6, and 500 µM Cpd 3 in green. The spectra depicted in A are measured with the WT protein and in B with the F148A variant. […] Dark gray bars correspond to the WT, while light gray bars correspond to the F148A variant. The asterisk means that no active conformation could be detected. Double asterisks indicate data not determined.
For the functional NMR assay ^1H,^15N-correlation spectra were recorded on a Bruker Avance III HD 600-MHz NMR spectrometer equipped with a cryogenic QCI probe in 2.5-mm NMR tubes at 298 K. Spectra were recorded with 64 complex points in the indirect dimension, 96 scans, and an interscan delay of 2 s. For the samples, 80 µM MLKL N-terminal executioner domain (residues 1 to 154) was used in a 20 mM sodium phosphate buffer at pH 7.5 containing 150 mM sodium chloride and 1 mM TCEP. For the different conditions, either 500 µM IP6, 12 mM NM, or a combination of the two were used. The xanthine compounds were tested at 500 µM, while NSA, due to limited solubility, was tested only at 200 µM, which is sufficient to saturate MLKL. Spectra were analyzed, and peaks were integrated in CcpNnmr analysis ([39]).

Test [7] relates to C86S-mutated MLKL. Particulars: cited from earlier work.

Each structure is given as a SMILES string. pIC50: −log10 of the molar value.

One may read the pIC50 as −log10 of the IC50, conventionally taken in molar units.

In the case of `COc1nccnc1NS(=O)(=O)c1ccc(NC(=O)/C=C/c2ccc([N+](=O)[O-])s2)cc1` [NSA, Necrosulfonamide], the pIC50 in test [1] was 5.85; in test [2], 5.21; in test [3] it was 6.34; in test [4], < 4.00; in test [5], 4.83. The “Effect on α-helix 6 detachment, in words” value in test [6] (WT MLKL:NSA complex (200 µM NSA), addition of 12 mM NM and 500 µM IP6) was “complete population shift to the active α-helix detached state”. Besides, the “Induction of the active state by compound alone” value in test [6] (WT, compound alone (Cpd 3 500 µM, NSA 200 µM), no NM/IP6) was “α-helix 6 remains in the attached auto-inhibitory state”.
As for `O=P(O)(O)O[C@H]1[C@H](OP(=O)(O)O)[C@@H](OP(=O)(O)O)[C@H](OP(=O)(O)O)[C@@H](OP(=O)(O)O)[C@H]1OP(=O)(O)O` [IP6, phytic acid], in test [6] (WT), the “Population of the activated state (pact), α-helix 6 detached” value was found to be 4%.
For the molecule `Cn1c(=O)c2c(nc([S+](C)[O-])n2C)n(C)c1=O` (centres unmarked) [Cpd 4], the pIC50 was 5.28 in test [1]; < 4.00 in test [2]; 5.50 in test [3]; < 4.00 in test [4]; < 4.00 in test [5]. Moreover, the “Inhibitory effect on MLKL activation (α-helix 6 detachment), in words” value (from here on “Inhibitory effect on MLKL activation”) in test [6] (WT) was “significantly reduced”.
For `Cn1c(=O)c2c(nc(S(C)(=O)=O)n2C)n(C)c1=O` [Cpd 1], the pIC50 is 6.24 in test [1]; 4.25 in test [2]; 6.51 in test [3]; < 4.00 in test [4]; < 4.00 in test [5]. Also, in test [6] (WT), the “Inhibitory effect on MLKL activation” value was “even less activated”. The “Activity in MLKL knockout cells transfected with C86S-mutated MLKL” value in test [7] is reported as “hampered”.
Consider `CCCCCCCCCO[C@@H]1O[C@H](CO)[C@@H](O[C@H]2O[C@H](CO)[C@@H](O)[C@H](O)[C@H]2O)[C@H](O)[C@H]1O` [NM, β-D-nonylmaltoside], for which the “Population of the activated state (pact), α-helix 6 detached” value in test [6] (WT) was found to be 1%.
With `COCCOCn1c(S(C)(=O)=O)nc2c1c(=O)n(C)c(=O)n2C` [Cpd 2], the pIC50 is 7.16 in test [1]; 5.42 in test [2]; 7.38 in test [3]; < 4.00 in test [4]; 5.36 in test [5]. Besides, the “Inhibitory effect on MLKL activation” value in test [6] (WT) is “even less activated”. For the same molecule, the “Activity in MLKL knockout cells transfected with C86S-mutated MLKL” value in test [7] is on record as “hampered”.
As for `CSc1nc2c(c(=O)n(C)c(=O)n2C)n1C` [Cpd 5], the pIC50 in test [1], in test [2], in test [3], in test [4] and in test [5] was < 4.00 throughout. In addition, the “Inhibitory effect on MLKL activation” value in test [6] (WT) is listed as “abolished”.
